In patent US20130115256A1, “METHODS FOR TREATING OR PREVENTING VASCULAR GRAFT FAILURE” (priority 2010, published 2013):

System: mouse lung endothelial cells (MLEC)
Experiment: NO analysis (nitrite chemiluminescence)
Type: cell-based
Conditions: physiological doses; 24 hours
Description: To measure nitric oxide (NO) production, conditioned medium from mouse lung endothelial cells (MLEC) was examined at 24 hours after treatment with MMI-0100 ([…]; SEQ ID NO: 1). The medium was processed for the measurement of nitrite (NO2) by a NO-specific chemiluminescence analyzer (Sievers) as previously described (Muto, A. et al., J. Exp. Med., 2011, 208(3): 561-575, incorporated herein by reference in its entirety.).

In the case of YARAAARQARAKALARQLGVAA [MMI-0100], the “Nitric oxide (NO) production” value was “not suppressed, and was even enhanced”.
